Each cell line was assayed with CO[C@@H]1[C@H](N(C)C(=O)c2ccccc2)C[C@H]2O[C@]1(C)n1c3ccccc3c3c4c(c5c6ccccc6n2c5c31)C(=O)NC4 [Midostaurin] + Cc1nc(NC(=O)N2CCC[C@H]2C(N)=O)sc1-c1ccnc(C(C)(C)C(F)(F)F)c1 [Alpelisib] (partner 2 µM) (assay: relative viability (nuclei count vs DMSO), 5 days (fraction); higher = more cells survive). Settings: first compound 0.1 µM.
Summary of the method: (§1)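 Nuclei were stained with Hoechst during a one-step fixation (final 0.05% Triton X-100, 1% formaldehyde, 1 ug/ml Hoechst) carried out 5 days after dosing, then counted on 4× images. The cells, lung cancer lines in 1536-well plates, had been dosed by pin tool the day after seeding with one drug alone or a fixed anchor-drug dose plus five library-drug doses (not always all listed) in √10 steps. Relative viability is the nuclei count in treated wells divided by that in vehicle wells, and each value is the median of duplicate plates.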
NCI-H1915 showed a relative viability of 1.06.

Same assay, conditions: first compound 0.3162 µM
NCI-H2126 gave a relative viability of 0.804. EMC-BAC-2 showed a relative viability of 0.61. In the case of NCI-H2085, the relative viability is reported as 0.788. NCI-H1666 was tested, and the relative viability was 0.732. NCI-H596 was tested, and the relative viability was 0.432. With LK-2 the relative viability was 1.05. NCI-H2087 gave a relative viability of 1.06. For SK-MES-1, the relative viability was 0.671. For H3255, the relative viability was 0.7. For COR-L23, the relative viability was 0.497. COR-L 105 showed a relative viability of 1.05. LOU-NH91 was tested, and the relative viability was 0.756. NCI-H2405 showed a relative viability of 0.573. Cell Line HOP-62 has a relative viability of 1.32. Work on HCC-44 yielded a relative viability of 0.607. Work on LU99A yielded a relative viability of 0.387. Work on BEN yielded a relative viability of 1.06. HARA gave a relative viability of 0.864. Cell Line NCI-H322M has a relative viability of 0.807. For LCLC-97TM1, the relative viability was 0.211. Cell Line NCI-H2009 has a relative viability of 1.16. In the case of A-427, the relative viability is reported as 0.982. NCI-H441 showed a relative viability of 0.736. NCI-H661 showed a relative viability of 0.661. In the case of NCI-H1734, the relative viability is reported as 0.742. NCI-H460 gave a relative viability of 0.365. NCI-H2347 showed a relative viability of 0.992. SK-LU-1 showed a relative viability of 0.647. NCI-H1395 showed a relative viability of 1.22. Work on 201T yielded a relative viability of 1.08. NCI-H1915 was tested, and the relative viability was 1.06.

These cell lines were tested with COc1cc(-c2nn([C@H]3CC[C@H](N4CCN(C(C)=O)CC4)CC3)c3ncnc(N)c23)ccc1NC(=O)c1cc2ccccc2n1C + COc1cccc2cc(-c3nc([C@H]4CC[C@H](C(=O)O)CC4)n4ncnc(N)c34)[nH]c12 [OSI-027] (partner 0.5 µM) in the same assay as above. Settings: first compound 0.0128 µM.
Summary of the method: as §1
In the case of NCI-H2126, the relative viability is reported as 0.686. EMC-BAC-2 gave a relative viability of 0.347. Work on NCI-H2085 yielded a relative viability of 0.716. NCI-H1666 gave a relative viability of 0.795. NCI-H596 gave a relative viability of 0.681. LK-2 showed a relative viability of 0.267. Cell Line NCI-H2087 has a relative viability of 0.692. SK-MES-1 was tested, and the relative viability was 0.685. H3255 gave a relative viability of 0.564. Cell Line COR-L23 has a relative viability of 0.753. Cell Line COR-L 105 has a relative viability of 0.59. LOU-NH91 gave a relative viability of 0.729. With NCI-H2405 the relative viability was 0.679. HOP-62 showed a relative viability of 0.86. Cell Line HCC-44 has a relative viability of 0.477. LU99A was tested, and the relative viability was 0.307. BEN gave a relative viability of 0.27. HARA showed a relative viability of 0.489. For NCI-H322M, the relative viability was 0.584. LCLC-97TM1 showed a relative viability of 0.596. For NCI-H2009, the relative viability was 0.618. With A-427 the relative viability was 0.497. NCI-H441 gave a relative viability of 0.637. NCI-H661 gave a relative viability of 0.721. Work on NCI-H1734 yielded a relative viability of 0.659. NCI-H460 was tested, and the relative viability was 0.609. NCI-H2347 was tested, and the relative viability was 0.406. Work on SK-LU-1 yielded a relative viability of 0.4. NCI-H1395 showed a relative viability of 0.573. Cell Line 201T has a relative viability of 0.646. In the case of NCI-H1915, the relative viability is reported as 0.677.

Same assay, conditions: first compound 0.04048 µM
With NCI-H2126 the relative viability was 0.661. Work on EMC-BAC-2 yielded a relative viability of 0.531. NCI-H2085 was tested, and the relative viability was 0.593. NCI-H1666 showed a relative viability of 0.789. For NCI-H596, the relative viability was 0.526. LK-2 showed a relative viability of 0.187. Work on SK-MES-1 yielded a relative viability of 0.665. H3255 was tested, and the relative viability was 0.476. COR-L23 showed a relative viability of 0.752. Cell Line COR-L 105 has a relative viability of 0.799. LOU-NH91 showed a relative viability of 0.803. Work on NCI-H2405 yielded a relative viability of 0.465. HOP-62 showed a relative viability of 0.734.

From the supplement of paper PMC10307832
